Data as given in US8377911B2, “Diuretics” (Merck Sharp & Dohme Corp., priority 2009, dated 2013).

System: Male beagle dogs
Experiment: canine telemetry protocol, blood pressure reduction efficacy
Type: in vivo
Details: telemetered male beagle dogs, 3 mg/kg, oral gavage
Description: Compounds of the invention were evaluated for blood pressure reduction efficacy using the following canine telemetry protocol.
Male beagle dogs (approximately 1-3 years old) with a body weight of between 10 and 16 kg were surgically implanted with DSI radiotelemetry devices (model: TL11M2-D70-PCT). Briefly, under an inhalant anesthesia, isoflurane/oxygen mixture (1-3.5%/to effect), the body of the telemetry device was positioned and secured intra-abdominally. Subsequently, the arterial catheter of the telemetry device was passed subcutaneously to the inguinal area and introduced into the femoral artery and advanced to the level of the descending aorta. The catheter was secured with 2-0 silk ligatures. The muscle and underlying fascia was closed over the catheter using absorbable suture and the skin was closed using non-absorbable suture. The animals were allowed a minimum recovery period of 2 weeks between surgery and the evaluation of test compounds.
Compound evaluation consisted of a 3 day paradigm at a 3 mg/kg dose. On the first day, no compounds were administered during a 24 hour period of baseline data collection. Blood pressure and heart rate data were collected continuously for one minute periods at 10 minute intervals. On the days of compound administration half the animals received test article with the other half receiving the vehicle used for compound formulation. All test materials were administered by oral gavage in a volume of 1 mL/kg. Data are expressed either as raw values (mm Hg or beats per minute) or as the change from baseline (average value for about 12 hours in low activity period prior to dosing). Change is SBP (systolic blood pressure) and PP (pulse pressure) over time is shown below: […]

Row | SMILES | ΔPP (pulse pressure), change from baseline, 1-6 h [mm Hg] | ΔSBP (systolic blood pressure), change from baseline, 1-6 h [mm Hg] | ΔPP (pulse pressure), change from baseline, 6-12 h [mm Hg] | ΔSBP (systolic blood pressure), change from baseline, 6-12 h [mm Hg] | ΔPP (pulse pressure), change from baseline, 12-18 h [mm Hg] | ΔSBP (systolic blood pressure), change from baseline, 12-18 h [mm Hg]
1 | CCCCON=[N+]([O-])N1CCC[C@H]1C(=O)Oc1c(C)ncc2c1CO[C@H]2c1ccc(Cl)cc1 (stereo in doubt) [Example 1, (3S)-3-(4-Chlorophenyl)-6-methyl-1,3-dihydrofuro[3,4-c]pyridin-7-yl 1-[(Z)-butoxy-NNO-azoxy]-L-prolinate] | −14.0 | −15.4 | −6.4 | −6.2 | −3.2 | −0.6
2 | Cc1ncc2c(c1OC(=O)[C@@H]1CCCN1[N+]([O-])=NOCC(C)C)CO[C@H]2c1ccc(Cl)cc1 (stereo in doubt) [Example 5, (3S)-3-(4-Chlorophenyl)-6-methyl-1,3-dihydrofuro[3,4-c]pyridin-7-yl 1-[(Z)-2-methylpropoxy-NNO-azoxy]-L-prolinate] | −3.6 | −2.4 | −1.7 | −2.6 | −2.6 | −2.8
3 | CCCC(C)ON=[N+]([O-])N1CCC[C@H]1C(=O)Oc1c(C)ncc2c1CO[C@H]2c1ccc(Cl)cc1 (stereo in doubt) [Example 9, (3S)-3-(4-Chlorophenyl)-6-methyl-1,3-dihydrofuro[3,4-c]pyridin-7-yl 1-[(Z)-pentan-2-yloxy-NNO-azoxy]-L-prolinate] | −10.6 | −11.8 | −5.2 | −6.6 | −2.5 | 1.0
4 | CC[C@H](C)CON=[N+]([O-])N1CCC[C@H]1C(=O)Oc1c(C)ncc2c1CO[C@H]2c1ccc(Cl)cc1 (stereo in doubt) [Example 10, (3S)-3-(4-Chlorophenyl)-6-methyl-1,3-dihydrofuro[3,4-c]pyridin-7-yl 1-((Z)-{[(2S)-2-methylbutyl]oxy}-NNO-azoxy)-L-prolinate] | 0.6 | −5.3 | 3.4 | −0.9 | 3.8 | −3.1
5 | Cc1ncc2c(c1OC(=O)[C@@H]1CCCN1[N+]([O-])=NOC1CCCCC1)CO[C@H]2c1ccc(Cl)cc1 (stereo in doubt) [Example 11, (3S)-3-(4-Chlorophenyl)-6-methyl-1,3-dihydrofuro[3,4-c]pyridin-7-yl 1-[(Z)-cyclohexyloxy-NNO-azoxy]-L-prolinate] | −6.9 | −9.3 | −2.3 | −3.3 | 0.9 | 3.9
6 | CCCCO/N=[N+](\[O-])N1CCC(C(=O)Oc2c(C)ncc3c2CO[C@H]3c2ccc(Cl)cc2)CC1 [Example 12, (3S)-3-(4-Chlorophenyl)-6-methyl-1,3-dihydrofuro[3,4-c]pyridin-7-yl 1-[(Z)-butoxy-NNO-azoxy]piperidine-4-carboxylate] | −12 | −11 | −5.8 | −5.8 | 0.8 | 3.3
